Assay results taken from US20070134156A1, “Fatigue evaluation apparatus, fatigue evaluation method, and application thereof” (SOIKEN INC., priority 2004, published 2007).

Test: Four hours of driving-simulator combined fatigue loading after intake of tryptophan; concentration of tryptophan in plasma
Format: in vivo, human
Text: Twelve healthy males who were in their twenties served as subjects. Each of the subjects was right-handed, had at least one year of experience as a licensed driver, and drove an ordinary motor vehicle at least once a week. Further, patients with sinus problems, smokers, users of drugs (such as caffeinated or spiced food products and anti-allergic drugs, which affect a central nervous system) were excluded.
The subject was subjected to driving work loading by using a driving simulator (ACCESS MASTER AM2330 manufactured by Tasknet Inc.).
In order to study an effect of tryptophan on fatigue, each of the subjects in a tryptophan group who received tryptophan before loading was subjected to four hours of simulator driving without a break, and each of the subjects in a placebo group who received a placebo before loading was subjected to four hours of simulator driving without a break. The same subject received 5 mg/kg of tryptophan or a placebo at least one week apart, and participated in the experiment.
Blood sample was taken from the subjects according to the experimental schedule shown in Table 4 so as to measure concentrations of amino acids in their plasma.

In the case of `N[C@@H](Cc1c[nH]c2ccccc12)C(=O)O` [tryptophan], the concentration at 4 h (male, human, plasma, oral, tryptophan group, 5 mg/kg tryptophan taken before loading, after four hours of simulator driving, healthy males) was 39 µM, the “concentration of tryptophan in plasma before fatigue loading” value (tryptophan group (5 mg/kg tryptophan), blood sampled before intake and before four hours of simulator driving, healthy males) was 43 µM and the “change in concentration of tryptophan in plasma between before and after fatigue loading” value (tryptophan group, 5 mg/kg before loading, four hours of simulator driving, placebo group showed a significant decrease) was “no significant decrease”.
